Drawing on patent US5158948A (Abbott Laboratories, priority 1991, dated 1992), this text covers Ki and IC50 for 23 compounds.

For assay [1], the target named is T1, dopamine D-2 receptor (Rattus norvegicus, UniProt P61169).
T1 construct: Homogenized rat caudate was the source of the D-2 receptors; from tissue; host or cells: rat caudate homogenate
Description: D-2 receptor binding assay, competition with [^3 H]-spiperone in homogenized rat caudate. As to conditions: rat caudate homogenate. The method, then: Homogenized rat caudate was the source of the D-2 receptors. […] A. Frey, T. E. Cote, C. […] The molar affinity of the compound for the receptor binding site was calculated by the same method used for the D-1 receptor assay, assuming a competitive interaction between the compound and the radiolabeled ligand.

The target in assay [2] is D-1 receptor. Description: D-1 antagonist activity in adenylate cyclase assay (antagonism of dopamine-induced increase in cAMP). The assay is classed as biochemical. As to conditions: 10 μM dopamine; goldfish retina or rat striatum homogenate. Here is the method:
The functional activity of a compound was determined by assaying, in vitro, its ability to either stimulate the enzyme adenylate cyclase to produce more cAMP (agonist activity) or to antagonize a dopamine-induced increase in cAMP levels. The protocol for the adenylate cyclase assays was described by K. J. Watling and J. E. Dowling in J Neurochemistry, 1981, 36: 599 and by J. W. Kebabian, et al. in Proc Natl Acad Sci, USA, 1972, 69: 2145. In order to determine agonist activity, cell-free tissue homogenates are incubated in an ionic buffer solution containing ATP and the compound being evaluated. The tissue was obtained from either goldfish retina or rat striatum.
The Ki values were calculated as described by Y. C.

Assay [3] addresses dopamine D-1 receptor (Rattus norvegicus, UniProt P18901). Description: D-1 receptor binding assay, competition with [^125 I]SCH-23982 in homogenized rat caudate.
Description: The compounds compete with the radiolabeled ligand for occupancy of the receptors and the molar potency of each compound was quantified.

Counter-ions that a name gives are not always drawn. Like-named read-outs stand apart in the source and are kept apart here. Bounds are passed on as bounds.

By Ki is commonly meant a measure of affinity in units of concentration, obtained from inhibition or displacement. What is called IC50 is the midpoint of a concentration-inhibition curve.

T1 sequence (P61169 whole entry): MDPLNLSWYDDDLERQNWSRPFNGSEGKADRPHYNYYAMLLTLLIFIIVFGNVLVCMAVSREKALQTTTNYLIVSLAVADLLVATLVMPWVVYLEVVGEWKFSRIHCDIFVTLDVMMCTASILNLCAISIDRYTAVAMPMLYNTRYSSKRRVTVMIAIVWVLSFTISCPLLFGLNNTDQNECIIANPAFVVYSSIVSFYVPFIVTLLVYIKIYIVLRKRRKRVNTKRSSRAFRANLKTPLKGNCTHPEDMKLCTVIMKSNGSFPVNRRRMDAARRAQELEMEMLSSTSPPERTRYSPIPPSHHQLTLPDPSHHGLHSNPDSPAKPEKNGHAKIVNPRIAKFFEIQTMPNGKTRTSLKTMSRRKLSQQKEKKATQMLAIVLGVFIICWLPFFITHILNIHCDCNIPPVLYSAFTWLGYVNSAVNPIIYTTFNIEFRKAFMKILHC
Sequence of dopamine D-1 receptor (P18901 whole entry): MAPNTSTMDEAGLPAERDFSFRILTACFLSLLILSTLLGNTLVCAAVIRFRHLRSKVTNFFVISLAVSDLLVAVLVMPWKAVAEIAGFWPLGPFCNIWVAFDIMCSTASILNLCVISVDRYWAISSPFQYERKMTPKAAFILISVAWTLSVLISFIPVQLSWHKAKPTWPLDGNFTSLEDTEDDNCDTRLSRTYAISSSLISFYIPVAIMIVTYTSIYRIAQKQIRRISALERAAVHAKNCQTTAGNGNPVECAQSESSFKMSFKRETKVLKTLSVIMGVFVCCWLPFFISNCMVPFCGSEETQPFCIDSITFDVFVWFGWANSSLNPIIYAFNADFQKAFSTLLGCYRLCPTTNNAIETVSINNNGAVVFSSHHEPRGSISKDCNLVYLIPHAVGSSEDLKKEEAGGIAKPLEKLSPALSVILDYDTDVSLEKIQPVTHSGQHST

For the compound `COc1cc2c(cc1O)C1(CCCc3ccccc31)CNCC2` (stereo not drawn) [Example 9, 8-Hydroxy-7-methoxy-1-(spiro-1'-1',2',3',4'-tetrahydronaphthalene)-2,3,4,5-tetrahydro-1H-3-benzazepine hydrochloride], the inhibitory constant (Ki) in assay [1] is more than 100000 nM; in assay [2] it was 2730 nM; in assay [3] it was 2610 nM. The 50% inhibitory concentration (IC50) in assay [2] is 15700 nM.

Consider `COc1cc2c(cc1O)C1(CCCc3ccccc31)CN(C)CC2` (stereo not drawn) [Example 10, 8-Hydroxy-7-methoxy-3-methyl-1-(spiro-1'-1',2',3',4'-tetrahydronaphthalene)-2,3,4,5-tetrahydro-1H-3-benzazepine hydrochloride], for which the inhibition constant (Ki) is 562000 nM in assay [1], 60 nM in assay [2] and 50 nM in assay [3]. The compound also registered an IC50 in assay [2] of 320 nM.

As to `CSc1cc2c(cc1O)C1(CCCc3ccccc31)CN(C)CC2` (stereo not drawn) [Example 11, 8-Hydroxy-7-(methylthio)-3-methyl-1-(spiro-1'-1',2',3',4'-tetrahydronaphthalene)-2,3,4,5-tetrahydro-1H-3-benzazepine hydrochloride], the inhibition constant Ki stood at 6800 nM in assay [1], 40 nM in assay [2] and 110 nM in assay [3]. Besides, in assay [2], the IC50 came to 230 nM.

In the case of `Oc1ccc2c(c1)C1(CCc3ccccc31)CNCC2` (stereo not drawn) [Example 13, 8-Hydroxy-1-(spiro-1'-indan)-2,3,4,5-tetrahydro-1H-3-benzazepine hydrobromide], the Ki in assay [1] is more than 100000 nM; in assay [3], 15900 nM.

For the compound `CN1CCc2ccc(O)cc2C2(CCc3ccccc32)C1` (stereo not drawn) [Example 14, 8-Hydroxy-3-methyl-1-(spiro-1'-indan)-2,3,4,5-tetrahydro-1H-3-benzazepine hydrobromide], the Ki was more than 100000 nM in assay [1], 100 nM in assay [2] and 410 nM in assay [3]. Besides, half-maximal inhibition in assay [2] (IC50) required 580 nM.

For the compound `Oc1cc2c(cc1O)C1(CCc3ccccc31)CNCC2` (stereo not drawn) [Example 15, 7.8-Dihydroxy-1-(spiro-1'-indan)-2,3,4,5-tetrahydro-1H-3-benzazepine hydrobromide], the Ki was more than 100000 nM in assay [1] and 650 nM in assay [3] (read-out: D-1 Ki, rat caudate homogenate, [^125 I]SCH-23982).

As for `CN1CCc2cc(O)c(O)cc2C2(CCc3ccccc32)C1` (stereo not drawn) [Example 16, 7,8-Dihydroxy-3-methyl-1-(spiro-1'-indan)-2,3,4,5-tetrahydro-1H-3-benzazepine formate], the Ki in assay [1] is 5500 nM; in assay [2] it was 90 nM; in assay [3], 330 nM. This compound yielded an IC50 in assay [2] of 510 nM.

For `Oc1cc2c(cc1Br)CCNCC21CCc2ccccc21` (stereo not drawn) [Example 17, 7-Bromo-8-hydroxy-1-(spiro-1'-indan)-2,3,4,5-tetrahydro-1H-2,3,4,5-tetrahydro-1H-3-benzazepine hydrochloride], the figures for the inhibitory constant (Ki) in assay [1], in assay [2] and in assay [3] were 18000 nM, 140 nM and 310 nM, respectively. This compound had a concentration for half-maximal inhibition (IC50) in assay [2] of 830 nM.

`CN1CCc2cc([N+](=O)[O-])c(O)cc2C2(CCc3ccccc32)C1` (stereo not drawn) [Example 21, 8-Hydroxy-7-nitro-3-methyl-1-(spiro-1'-indan)-2,3,4,5-tetrahydro-1H-3-benzazepine hydrochloride]: the Ki in assay [1] stood at 39200 nM; in assay [2], 240 nM; in assay [3], 1320 nM. This compound displayed an IC50 in assay [2] of 1380 nM.

`COc1cc2c(cc1O)C1(CCc3ccccc31)CNCC2` (stereo not drawn) [Example 24, 8-Hydroxy-7-methoxy-1-(spiro-1'-indan)-2,3,4,5-tetrahydro-1H-3-benzazepine hydrochloride]: the inhibitory constant (Ki) in assay [1] is more than 100000 nM; in assay [2] it was 130 nM; in assay [3], 810 nM. 530 nM corresponded to half-maximal inhibition in assay [2] (IC50).

Take `COc1cc2c(cc1O)C1(CCc3ccccc31)CN(C)CC2` (stereo not drawn) [Example 25, 8-Hydroxy-7-methoxy-3-methyl-1-(spiro-1'-indan)-2,3,4,5-tetrahydro-1H-3-benzazepine hydrochloride]: the Ki in assay [1] came to 9500 nM; in assay [2], 20 nM; in assay [3], 160 nM. In assay [2], this compound had an IC50 of 130 nM.

As for `Oc1cc2c(cc1O)C1(CCCc3ccccc31)CNCC2` (stereo not drawn) [Example 26, 7.8-Dihydroxy-1-(spiro-1'-1',2', 3',4'-tetrahydronapthalene)-2,3,4,5-tetrahydro-1H-3-benzazepine hydrobromide], the Ki in assay [1] is more than 100000 nM; in assay [3], 16200 nM.

As to `Oc1ccc2c(c1)C1(CCCc3ccccc31)CNCC2` (stereo not drawn) [Example 28, 8-Hydroxy-1-(spiro-1'-1',2',3',4'-tetrahydronapthalene)-2,3,4,5-tetrahydro-1H-3-benzazepine hydrochloride], the figures for the Ki in assay [1] and in assay [3] were 136000 nM and 23000 nM, respectively.

Regarding `CN1CCc2ccc(O)cc2C2(CCCc3ccccc32)C1` (stereo not drawn) [Example 29, 8-Hydroxy-3-methyl-1-(spiro-1'-1',2',3',4'-tetrahydronapthalene)-2,3,4,5-tetrahydro-1H-3-benzazepine hydrochloride], the figures for the inhibition constant Ki in assay [1], in assay [2] and in assay [3] were 112000 nM, 740 nM and 440 nM, respectively. This compound displayed an IC50 in assay [2] of 4240 nM.

Take `Oc1cc2c(cc1Br)CCNCC21CCCc2ccccc21` (stereo not drawn) [Example 30, 7-Bromo-8-hydroxy-1-(spiro-1'-1',2',3',4'-tetrahydronapthalene)-2,3,4,5-tetrahydro-1H-3-benzazepine hydrochloride]: the values for the inhibition constant Ki in assay [1], in assay [2] and in assay [3] were 14600 nM, 160 nM and 680 nM, respectively. In assay [2], half-maximal inhibition (IC50) required 920 nM.

In the case of `CN1CCc2cc(Br)c(O)cc2C2(CCCc3ccccc32)C1` (stereo not drawn) [Example 31, 7-Bromo-8-hydroxy-3-methyl-1-(spiro-1'-1',2',3',4'-tetrahydronapthalene)-2,3,4,5-tetrahydro-1H-3-benzazepine hydrochloride], the inhibitory constant (Ki) is 10100 nM in assay [1], 20 nM in assay [2] and 30 nM in assay [3]. In assay [2], this compound gave a concentration for half-maximal inhibition (IC50) of 140 nM.

For `COc1cc2c(cc1O)C1(CCCCc3ccccc31)CN(C)CC2` (stereo not drawn) [Example 32, 8-Hydroxy-7-methoxy-3-methyl-1-(spiro-5'-6',7',8',9'-tetrahydro-5'H-benzocycloheptene)-2,3,4,5-tetrahydro-1H-3-benzazepine hydrochloride], the inhibition constant Ki in assay [1] turned out to be 112000 nM; in assay [2], 560 nM; in assay [3], 1500 nM. This compound had an IC50 in assay [2] of 3240 nM.

Take `CN1CCc2ccc(O)cc2C2(CCCCc3ccccc32)C1` (stereo not drawn) [Example 33, 8-Hydroxy-3-methyl-1-(spiro-5'-6',7',8',9'-tetrahydro-5'H-benzocycloheptene)-2,3,4,5-tetrahydro-1H-3-benzazepine hydrochloride]: the values for the inhibition constant Ki in assay [1] and in assay [3] were 8800 nM and 3410 nM, respectively.

`CN1CCc2cc(O)c(O)cc2C2(CCCCc3ccccc32)C1` (stereo not drawn) [Example 34, 7.8-Dihydroxy-3-methyl-1-(spiro-5'-6',7',8',9'-tetrahydro-5'H-benzocycloheptene)-2,3,4,5-tetrahydro-1H-3-benzazepine hydrobromide]: the Ki in assay [1] was determined as 4200 nM; in assay [3], 8000 nM.

As for `CN1CCc2cc(Br)c(O)cc2C2(CCCCc3ccccc32)C1` (stereo not drawn) [Example 35, 7-Bromo-8-hydroxy-3-methyl-1-(spiro-5'-6',7',8',9'-tetrahydro-5'H-benzocycloheptene)-2,3,4,5-tetrahydro-1H-3-benzazepine hydrochloride], the Ki in assay [1] was determined as 7500 nM; in assay [3] it was 940 nM.

For `COc1cc2c(cc1O)C1(CCOc3ccccc31)CN(C)CC2` (stereo not drawn) [Example 135, 8-Hydroxy-7-methoxy-3-methyl-1-(spiro-4'-(3',4'-dihydro-2'H-1'-benzopyran))-2,3,4,5-tetrahydro-1H-3-benzazepine hydrochloride], the Ki came out at 660 nM in assay [1], 170 nM in assay [2] and 160 nM in assay [3]. The compound further returned an IC50 in assay [2] of 960 nM.

For the compound `CN1CCc2ccc(O)cc2C2(CCOc3ccccc32)C1` (stereo not drawn) [Example 136, 8-Hydroxy-3-methyl-1-(spiro-4'-(3',4'-dihydro-2'-H-1'-benzopyran))-2,3,4,5-tetrahydro-1H-3-benzazepine hydrochloride], the Ki in assay [1] is more than 100000 nM; in assay [2], 750 nM; in assay [3], 1670 nM. This compound also returned a half-maximal inhibitory concentration (IC50) in assay [2] of 4340 nM.

As to `CN1CCc2cc(Br)c(O)cc2C2(CCOc3ccccc32)C1` (stereo not drawn) [Example 137, 7-Bromo-8-hydroxy-3-methyl-1-(spiro-4'-(3',4'-dihydro-2'H-1'-benzopyran))-2,3,4,5-tetrahydro-1H-3-benzazepine hydrochloride], the Ki in assay [1] was more than 100000 nM; in assay [2], 30 nM; in assay [3], 20 nM. This compound also gave an IC50 in assay [2] of 140 nM.
